Reference: PubChem BioAssay (NCI)
Where “and” joins values, the source holds several entries; their conditions need not be identical. Identical values can stand only once.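 Interpolation was linear, between the two tested concentrations surrounding the appropriate level; five concentrations were tested over 48 hours in 96-well plates. GI50 marks 50% less growth. Definition used: TGI = concentration required for complete inhibition of growth.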

Assays:
Assay in all cases: DTP human tumour cell line panel, 48 h
[1] = tested on: UO-31 renal
[2] = tested on: OVCAR-3 ovarian
[3] = tested on: SK-MEL-2 melanoma
[4] = tested on: KM12 colon
[5] = tested on: OVCAR-8 ovarian
[6] = tested on: EKVX NSCLC
[7] = tested on: SK-MEL-28 melanoma
[8] = tested on: HL-60(TB) leukemia
[9] = tested on: SW-620 colon
[10] = tested on: SF-295 CNS
[11] = tested on: TK-10 renal
[12] = tested on: HOP-62 NSCLC
[13] = tested on: NCI-H226 lung
[14] = tested on: HCC-2998 colon
[15] = tested on: SNB-75 CNS
[16] = tested on: NCI-H23 lung
[17] = tested on: OVCAR-5 ovarian
[18] = tested on: SNB-19 CNS
[19] = tested on: RPMI-8226 leukemia
[20] = tested on: MCF7 breast
[21] = tested on: K-562 leukemia
[22] = tested on: HOP-92 NSCLC
[23] = tested on: SR leukemia
[24] = tested on: U251 CNS
[25] = tested on: 786-0 renal
[26] = tested on: SK-OV-3 ovarian
[27] = tested on: RXF 393 renal
[28] = tested on: NCI/ADR-RES ovarian
[29] = tested on: ACHN renal
[30] = tested on: PC-3 prostate
[31] = tested on: COLO 205 colon
[32] = tested on: MDA-MB-231 breast
[33] = tested on: NCI-H522 lung
[34] = tested on: UACC-257 melanoma
[35] = tested on: A549 NSCLC
[36] = tested on: SF-539 CNS
[37] = tested on: SF-268 CNS
[38] = tested on: HCT-15 colon
[39] = tested on: NCI-H460 lung
[40] = tested on: OVCAR-4 ovarian
[41] = tested on: HS 578T breast
[42] = tested on: SN12C renal
[43] = tested on: A498 renal
[44] = tested on: M14 melanoma
[45] = tested on: MDA-MB-435
[46] = tested on: BT-549 breast
[47] = tested on: MOLT-4 leukemia
[48] = tested on: IGROV1 ovarian
[49] = tested on: DU-145 prostate
[50] = tested on: UACC-62 melanoma
[51] = tested on: SK-MEL-5 melanoma
[52] = tested on: HT29 colon
[53] = tested on: HCT-116 colon
[54] = tested on: LOX IMVI melanoma
[55] = tested on: CCRF-CEM leukemia

For COC(=O)C1CCC(NC(=O)c2csc([C@@H](C[C@H](C(C)C)N(C)C(=O)[C@@H](NC(=O)[C@H]3CCCCN3C)C(C)C)OC(C)=O)n2)CC1 (some centres not stated), the GI50 [1] was 68.4 nM and 303 nM, the TGI [1] was > 33300 nM and the GI50 [2] was 3.59 nM and 9.35 nM. For the same compound, the TGI [2] was 29.4 nM, the GI50 [3] was 7.62 nM and 10.9 nM and the TGI [3] was > 33300 nM. For the same compound, the GI50 [4] was 4.98 nM and 14 nM, the TGI [4] was > 33300 nM and the GI50 [5] was 11.4 nM and 26.6 nM. The TGI [5] was > 33300 nM, the GI50 [6] was 15.2 nM and 38.5 nM and the TGI [6] was > 33300 nM. For the same compound, the GI50 [7] was > 33300 nM, the TGI [7] was > 33300 nM and the GI50 [8] was 3 nM and 7.35 nM. The TGI [8] was 13.6 nM and 18.1 nM, the GI50 [9] was 4.53 nM and 14.9 nM and the TGI [9] was > 33300 nM. The GI50 [10] was 4.23 nM and 14.6 nM, the TGI [10] was > 33300 nM and the GI50 [11] was 1050 nM. For the same compound, the TGI [11] was > 33300 nM, the GI50 [12] was 5.19 nM and 16 nM and the TGI [12] was > 33300 nM. The GI50 [13] was 12.6 nM and 31.7 nM, the TGI [13] was > 33300 nM and the GI50 [14] was 32.5 nM and 99.4 nM. The TGI [14] was > 33300 nM, the GI50 [15] was 3.07 nM and 11.9 nM and the TGI [15] was > 33300 nM. For the same compound, the GI50 [16] was 34.3 nM and 21.7 nM, the TGI [16] was > 33300 nM and the GI50 [17] was 11.2 nM and 21.2 nM. For the same compound, the TGI [17] was > 33300 nM, the GI50 [18] was 4.7 nM and 15.2 nM and the TGI [18] was > 33300 nM. For the same compound, the GI50 [19] was 4.98 nM and 14.9 nM, the TGI [19] was > 33300 nM and the GI50 [20] was 3.09 nM and 12.1 nM. The TGI [20] was > 33300 nM, the GI50 [21] was 2.56 nM and 7.66 nM and the TGI [21] was > 33300 nM. The GI50 [22] was 15.3 nM, the TGI [22] was 6730 nM and the GI50 [23] was 2.12 nM and 3.33 nM. The TGI [23] was > 33300 nM, the GI50 [24] was 4.99 nM and 15.4 nM and the TGI [24] was > 33300 nM. For the same compound, the GI50 [25] was 7.42 nM and 14 nM, the TGI [25] was > 33300 nM and the GI50 [26] was 4.5 nM and 14.8 nM. The TGI [26] was > 33300 nM, the GI50 [27] was 9.23 nM and the TGI [27] was > 33300 nM. The GI50 [28] was 106 nM and 258 nM, the TGI [28] was > 33300 nM and the GI50 [29] was 279 nM. For the same compound, the TGI [29] was > 33300 nM, the GI50 [30] was 8.4 nM and 16.8 nM and the TGI [30] was > 33300 nM. For the same compound, the GI50 [31] was 3.59 nM and 12.1 nM, the TGI [31] was 14.1 nM and 78.4 nM and the GI50 [32] was 8.63 nM and 24 nM. The GI50 [33] was 1.38 nM and 3.33 nM, the TGI [33] was 5.9 nM and 10.7 nM and the GI50 [34] was > 33300 nM. For the same compound, the TGI [34] was > 33300 nM, the GI50 [35] was 8.59 nM and 21 nM and the TGI [35] was > 33300 nM. For the same compound, the GI50 [36] was 3.94 nM and 12.7 nM, the TGI [36] was 63.7 nM and 151 nM and the GI50 [37] was 9.2 nM and 19.7 nM. For the same compound, the TGI [37] was > 33300 nM, the GI50 [38] was 18.5 nM and 53.6 nM and the TGI [38] was > 33300 nM. For the same compound, the GI50 [39] was 3.72 nM and 12 nM, the TGI [39] was > 33300 nM and the TGI [40] was > 33300 nM. The GI50 [41] was 4.29 nM and 11.1 nM, the TGI [41] was > 33300 nM and the GI50 [42] was 6.74 nM and 22.5 nM. The TGI [42] was > 33300 nM, the GI50 [43] was 6.8 nM and 12.6 nM and the TGI [43] was 127 nM. The GI50 [44] was 5.7 nM and 5.52 nM, the TGI [44] was 16.3 nM and the GI50 [45] was 0.404 nM and 3.33 nM. The TGI [45] was 2.65 nM and 8.57 nM, the GI50 [46] was 9.9 nM and 20 nM and the TGI [46] was 791 nM and 225 nM. The GI50 [47] was 5.74 nM and 14.9 nM, the TGI [47] was > 33300 nM and the GI50 [48] was 11.5 nM and 30.5 nM. The TGI [48] was > 33300 nM, the GI50 [49] was 4.06 nM and 9.67 nM and the TGI [49] was 28.9 nM. The GI50 [50] was 3.82 nM and 15.7 nM, the TGI [50] was > 33300 nM and the GI50 [51] was 3.26 nM and 10.8 nM. The TGI [51] was 118 nM and 348 nM, the GI50 [52] was 3.43 nM and 10.4 nM and the TGI [52] was 4200 nM. For the same compound, the GI50 [53] was 4.01 nM, the GI50 [54] was 6.44 nM and 16.4 nM and the TGI [54] was > 33300 nM. The GI50 [55] was 4.07 nM and 10.7 nM and the TGI [55] was > 33300 nM.
